# ChEMBL document CHEMBL1201862, “PubChem BioAssay data set” (2004)
# Active and inactive are the calls of the source.
# Columns and labels:
# [1] = target: Peroxisome proliferator-activated receptor gamma/Nuclear receptor coactivator 3 (Homo sapiens, UniProt P37231); experiment: (§1) TR-FRET dose response biochemical High Throughput Screening assay for agonists of the steroid receptor coactivator 3 (SRC-3) recruitment by the peroxisome proliferator-activated receptor gamma (PPAR gamma): non-selective agonists. [Related pubchem assays: 1301 (Confirmation screen.), 1048 (Primary screen.)]; format: functional
# [2] = target: Peroxisome proliferator-activated receptor gamma/Nuclear receptor coactivator 1 (Homo sapiens, UniProt P37231); experiment: as §1, with “1 (SRC-1)” for “3 (SRC-3)”, “assays (depositor defined):AID1300, AID1808, AID504735, AID631]” for “assays: 1301 (Confirmation screen.), 1048 (Primary screen.)]”; format: protein assay
# [3] = target: Peroxisome proliferator-activated receptor gamma/Nuclear receptor coactivator 2 (Homo sapiens, UniProt P37231); experiment: TR-FRET dose response biochemical High Throughput Screening assay for agonists of the steroid receptor coactivator 2 (SRC-2) recruitment by the peroxisome proliferator-activated receptor gamma (PPAR gamma): non-selective agonists. [Related pubchem assays: 1297, 1032 ]; format: functional
# Peroxisome proliferator-activated receptor gamma/Nuclear receptor coactivator 2, sequence (P37231 whole entry): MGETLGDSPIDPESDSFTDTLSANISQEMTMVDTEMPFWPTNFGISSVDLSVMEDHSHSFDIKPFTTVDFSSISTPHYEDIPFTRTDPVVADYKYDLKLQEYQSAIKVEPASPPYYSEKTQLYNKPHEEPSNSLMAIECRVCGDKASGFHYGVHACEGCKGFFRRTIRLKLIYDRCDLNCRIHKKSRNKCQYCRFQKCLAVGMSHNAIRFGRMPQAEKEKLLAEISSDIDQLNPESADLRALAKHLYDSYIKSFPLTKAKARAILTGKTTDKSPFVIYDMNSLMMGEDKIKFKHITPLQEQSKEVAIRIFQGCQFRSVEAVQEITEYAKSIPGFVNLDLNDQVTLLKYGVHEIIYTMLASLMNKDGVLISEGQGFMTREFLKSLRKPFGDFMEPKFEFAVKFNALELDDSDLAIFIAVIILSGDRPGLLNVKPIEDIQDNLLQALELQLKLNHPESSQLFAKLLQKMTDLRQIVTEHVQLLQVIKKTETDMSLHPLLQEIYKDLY
# Peroxisome proliferator-activated receptor gamma/Nuclear receptor coactivator 2, sequence (Q15596 whole entry, further chain): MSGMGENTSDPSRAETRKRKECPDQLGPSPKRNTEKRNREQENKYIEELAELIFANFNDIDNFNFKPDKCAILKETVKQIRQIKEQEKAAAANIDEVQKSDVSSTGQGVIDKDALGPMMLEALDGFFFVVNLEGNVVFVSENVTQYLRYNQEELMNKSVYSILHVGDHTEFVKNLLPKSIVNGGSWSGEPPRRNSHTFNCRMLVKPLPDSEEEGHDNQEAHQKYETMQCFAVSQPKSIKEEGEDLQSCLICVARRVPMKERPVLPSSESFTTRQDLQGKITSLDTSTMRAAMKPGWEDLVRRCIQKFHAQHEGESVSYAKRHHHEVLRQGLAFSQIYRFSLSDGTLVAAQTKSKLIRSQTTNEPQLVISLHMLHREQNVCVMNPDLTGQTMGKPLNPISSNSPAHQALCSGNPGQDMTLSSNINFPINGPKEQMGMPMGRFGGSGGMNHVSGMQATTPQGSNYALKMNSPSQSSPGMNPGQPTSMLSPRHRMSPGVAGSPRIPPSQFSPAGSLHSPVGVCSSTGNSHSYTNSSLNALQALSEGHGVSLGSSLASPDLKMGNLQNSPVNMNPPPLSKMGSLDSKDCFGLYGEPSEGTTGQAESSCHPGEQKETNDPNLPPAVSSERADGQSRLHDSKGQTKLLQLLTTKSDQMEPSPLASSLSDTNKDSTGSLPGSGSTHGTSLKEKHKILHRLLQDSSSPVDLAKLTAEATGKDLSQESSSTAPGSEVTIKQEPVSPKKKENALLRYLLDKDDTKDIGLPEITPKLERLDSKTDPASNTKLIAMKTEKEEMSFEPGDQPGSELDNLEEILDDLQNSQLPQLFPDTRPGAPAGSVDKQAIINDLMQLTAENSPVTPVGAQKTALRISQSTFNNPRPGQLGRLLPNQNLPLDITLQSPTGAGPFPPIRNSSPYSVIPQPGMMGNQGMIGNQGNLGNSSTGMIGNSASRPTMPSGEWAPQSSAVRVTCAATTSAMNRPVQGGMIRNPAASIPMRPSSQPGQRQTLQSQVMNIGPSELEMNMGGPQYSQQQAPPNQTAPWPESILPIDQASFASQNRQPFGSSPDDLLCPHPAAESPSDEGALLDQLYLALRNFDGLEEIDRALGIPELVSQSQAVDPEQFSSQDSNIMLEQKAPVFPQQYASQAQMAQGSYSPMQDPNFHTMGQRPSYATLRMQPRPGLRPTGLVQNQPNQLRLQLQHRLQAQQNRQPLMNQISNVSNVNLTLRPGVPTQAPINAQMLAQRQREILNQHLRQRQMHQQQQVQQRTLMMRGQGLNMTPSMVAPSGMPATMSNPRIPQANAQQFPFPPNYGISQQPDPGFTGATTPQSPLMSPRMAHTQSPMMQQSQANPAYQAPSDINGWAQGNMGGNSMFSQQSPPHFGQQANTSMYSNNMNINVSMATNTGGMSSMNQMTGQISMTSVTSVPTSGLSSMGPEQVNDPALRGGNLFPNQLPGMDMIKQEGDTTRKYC
# [4] = mammalian cell cytotoxicity, dose response, cytotoxicity control, plate reader, cherry-pick samples (AID 504397); format: functional, cell-based
# CAAX prenyl protease 2 = target: T1, CAAX prenyl protease 2 (Saccharomyces cerevisiae S288c, UniProt Q03530); format: biochemical
# T1 sequence (Q03530 whole entry): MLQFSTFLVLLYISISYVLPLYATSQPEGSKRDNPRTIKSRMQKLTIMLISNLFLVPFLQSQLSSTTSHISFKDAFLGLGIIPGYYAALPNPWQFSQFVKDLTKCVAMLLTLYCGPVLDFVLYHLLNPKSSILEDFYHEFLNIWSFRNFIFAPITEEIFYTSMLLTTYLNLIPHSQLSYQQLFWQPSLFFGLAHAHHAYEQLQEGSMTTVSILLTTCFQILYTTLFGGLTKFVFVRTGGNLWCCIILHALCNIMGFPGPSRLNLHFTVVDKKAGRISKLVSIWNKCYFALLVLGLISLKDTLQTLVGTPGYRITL
# [5] = enhancers of respiration in Yfh1-depleted yeast, dose response, Friedreich's ataxia, plus single-dose screen (AID 1465); format: functional;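 further: yeast depleted of Yfh1p frataxin homolog grown on glycerol needing respiration; WST-1 tetrazolium dye reduction as measure of cellular dehydrogenase metabolic activity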
# Streptococcus = experiment: Group A Streptococcus viability loss, dose response, counter-screen for streptokinase expression inhibitor project, luminescence, BacTiterGlo (AID 1915); format: functional, organism-based;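 further: potency for reduction of bacterial viability or growth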
# Streptokinase A = target: T2, Streptokinase A (Streptococcus pyogenes serotype M1, UniProt P10520); experiment: S. pyogenes streptokinase expression inhibitors, potency, dose response, plasminogen activation absorbance, OD405 (AID 1914); format: functional, Streptococcus pyogenes M1 GAS;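 further: secreted streptokinase activity via plasminogen activation per viability signal from cell pellet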
# T2 sequence (P10520 whole entry): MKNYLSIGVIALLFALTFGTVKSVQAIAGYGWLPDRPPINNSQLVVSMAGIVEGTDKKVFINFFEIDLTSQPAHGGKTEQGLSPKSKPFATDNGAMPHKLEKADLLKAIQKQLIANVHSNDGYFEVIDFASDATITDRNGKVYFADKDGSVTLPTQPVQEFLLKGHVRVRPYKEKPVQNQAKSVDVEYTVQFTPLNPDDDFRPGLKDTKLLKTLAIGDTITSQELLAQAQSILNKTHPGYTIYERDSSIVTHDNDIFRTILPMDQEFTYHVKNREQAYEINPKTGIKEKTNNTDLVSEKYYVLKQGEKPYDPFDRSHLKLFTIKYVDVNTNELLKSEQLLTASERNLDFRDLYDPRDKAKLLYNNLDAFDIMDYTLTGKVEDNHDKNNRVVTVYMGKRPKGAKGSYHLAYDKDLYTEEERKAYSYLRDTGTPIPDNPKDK
# [6] = tested on: Streptococcus sp. 'group A'; experiment: growth inhibition of control SK(-) GAS strain, dose response, counter-screen for streptokinase expression inhibitor project, luminescence, kanamycin, BacTiterGlo, confirmation (AID 1900); format: functional, organism-based
# Keap1/Nrf2 = Keap1/Nrf2 (Homo sapiens, UniProt Q14145); experiment: Keap1-Nrf2 protein-protein interaction inhibitors, dose response, biochemical, fluorescence polarization, cherry-picked samples (AID 588683)
# Keap1/Nrf2, sequence (Q16236 whole entry): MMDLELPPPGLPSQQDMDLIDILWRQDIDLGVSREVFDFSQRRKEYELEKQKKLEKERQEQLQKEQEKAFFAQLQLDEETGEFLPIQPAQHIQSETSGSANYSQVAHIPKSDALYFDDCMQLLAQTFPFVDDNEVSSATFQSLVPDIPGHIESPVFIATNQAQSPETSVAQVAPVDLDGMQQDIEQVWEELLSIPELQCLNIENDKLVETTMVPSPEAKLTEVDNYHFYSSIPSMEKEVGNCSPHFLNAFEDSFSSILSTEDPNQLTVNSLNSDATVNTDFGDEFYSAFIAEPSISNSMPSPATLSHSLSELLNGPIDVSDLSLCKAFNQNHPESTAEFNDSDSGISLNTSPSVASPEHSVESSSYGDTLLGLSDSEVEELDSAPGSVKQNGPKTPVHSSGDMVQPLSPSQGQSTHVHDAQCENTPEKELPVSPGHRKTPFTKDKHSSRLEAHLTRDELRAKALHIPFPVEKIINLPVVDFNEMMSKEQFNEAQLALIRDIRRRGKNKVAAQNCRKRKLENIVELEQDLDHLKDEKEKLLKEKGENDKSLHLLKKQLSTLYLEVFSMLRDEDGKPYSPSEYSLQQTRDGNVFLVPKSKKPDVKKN
# Keap1/Nrf2, sequence (Q14145 whole entry): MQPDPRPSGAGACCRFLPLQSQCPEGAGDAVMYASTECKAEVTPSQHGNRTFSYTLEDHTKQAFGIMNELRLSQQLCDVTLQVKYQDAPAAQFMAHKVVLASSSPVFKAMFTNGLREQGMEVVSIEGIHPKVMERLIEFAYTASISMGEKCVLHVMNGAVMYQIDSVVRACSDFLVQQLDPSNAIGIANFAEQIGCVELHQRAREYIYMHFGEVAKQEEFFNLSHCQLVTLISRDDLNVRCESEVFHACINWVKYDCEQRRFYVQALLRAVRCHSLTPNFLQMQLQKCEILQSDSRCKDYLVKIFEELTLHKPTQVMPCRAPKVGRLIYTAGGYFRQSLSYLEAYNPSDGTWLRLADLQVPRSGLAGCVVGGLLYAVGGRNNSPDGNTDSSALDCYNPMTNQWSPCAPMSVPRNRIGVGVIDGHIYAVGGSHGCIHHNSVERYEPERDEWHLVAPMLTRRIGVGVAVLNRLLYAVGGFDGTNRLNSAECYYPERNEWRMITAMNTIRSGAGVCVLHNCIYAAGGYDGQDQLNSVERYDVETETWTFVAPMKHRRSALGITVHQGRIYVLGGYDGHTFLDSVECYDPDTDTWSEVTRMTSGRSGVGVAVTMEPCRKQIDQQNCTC
# [7] = HEp-2 cell cytotoxicity, dose response, cytotoxicity control for RSV inhibitor project, HTS (AID 2410); format: functional; settings: human respiratory syncytial virus
# [8] = Luminescence Cell-Based Dose Retest to Confirm Inhibitors of Cancer Stem Cells. [Related pubchem assays (depositor defined):AID2717, AID2721]; format: functional; settings: Homo sapiens
# HeLa = experiment: HeLa cell cytotoxicity, dose response, cytotoxicity control for MITF activator project, CellTiter-Glo luminescence, cherry-pick samples (AID 540259); format: functional, cell-based; settings: Homo sapiens
# Escherichia coli = experiment: microbe, parasite or virus in culture
structure (smiles),measurement,setting,value
Cc1onc(-c2ccccc2Cl)c1C(=O)Nc1nnc(-c2ccc(Cl)cc2Cl)s1,EC50,[1],75.5 µM (not active)
same,EC50,[2],51.2 µM (inactive)
same,EC50,[3],42.8 µM (not active)
CCN(CC)CCN(C(=O)c1ccc2ccccc2c1)c1nc2ccc(F)cc2s1,AC50,[4],181 µM (active)
same,AC50,CAAX prenyl protease 2,6.18 µM (active)
O=C1CCCc2oc3c(cc(NS(=O)(=O)c4ccc5c6c(cccc46)C(=O)N5)c4ccccc43)c21,EC50,[5],> 100 µM (active)
same,EC50,Streptococcus,> 150 µM (not active)
same,EC50,Streptokinase A,> 150 µM (not active)
same,EC50,[6],3.82 µM (active)
same,AC50,Keap1/Nrf2,51.2 µM (active)
same,CC50,[7],25.1 µM (active)
CC(C)c1ccc(NC(=O)c2snc3ccc(Cl)cc23)cc1,AC50,[8],3.02 µM (active)
same,AC50,HeLa,52.8 µM (active)
same,AC50,Escherichia coli,23.1 µM (active)
Cc1ccc(NC(=O)/C(C#N)=C(\N)C(Cl)(Cl)Cl)nc1,AC50,Keap1/Nrf2,11.9 µM (active)
